Target: P. falciparum apicoplast DNA polymerase (Pf-apPOL) (Plasmodium falciparum, UniProt Q8ILY1)
Experiment: Fluorescence-based high-throughput DNA polymerase assay (molecular beacon), primary screen and dose-response;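 on % inhibition ApPOL 90': test concentration in µM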;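 on % inhibition apPOL 180': test concentration in µM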
Assay type: biochemical
Procedure, shortened: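 Single-point screening used 10 µM compound with 20 nM polymerase, 20 nM hairpin substrate and 6 µM dNTPs for 90 min at 25 °C. Confirmatory titrations (2.5–80 µM) followed fluorescence at three times, and IC50 was derived from a fit including a cooperativity term n.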

[1] = supplemental file 2, sheet IC50 nontoxic compounds; Pf-apPOL

Sequence of P. falciparum apicoplast DNA polymerase (Pf-apPOL) (Q8ILY1 entry or part of it): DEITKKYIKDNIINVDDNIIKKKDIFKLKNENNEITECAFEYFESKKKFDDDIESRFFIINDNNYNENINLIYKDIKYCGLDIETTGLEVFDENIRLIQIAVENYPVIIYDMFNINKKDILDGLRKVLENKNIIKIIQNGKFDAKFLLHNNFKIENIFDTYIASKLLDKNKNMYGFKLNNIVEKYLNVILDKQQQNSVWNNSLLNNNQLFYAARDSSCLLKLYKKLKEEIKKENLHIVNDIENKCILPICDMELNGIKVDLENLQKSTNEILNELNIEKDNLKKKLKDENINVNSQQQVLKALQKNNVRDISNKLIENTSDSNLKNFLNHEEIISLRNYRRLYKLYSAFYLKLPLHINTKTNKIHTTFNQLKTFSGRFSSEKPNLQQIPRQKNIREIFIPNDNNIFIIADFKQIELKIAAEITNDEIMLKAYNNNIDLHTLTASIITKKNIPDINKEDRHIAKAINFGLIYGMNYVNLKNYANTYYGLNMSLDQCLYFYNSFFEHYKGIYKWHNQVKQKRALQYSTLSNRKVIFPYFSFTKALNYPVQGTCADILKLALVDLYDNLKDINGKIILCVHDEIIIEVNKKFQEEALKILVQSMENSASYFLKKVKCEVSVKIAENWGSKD

CC(=O)Nc1cc(C(=O)NC(C)C)c2ccc(C)nc2c1 [KU0206312]
% inhibition Apo pol 10' (DRC-1; 10'; concentration 2.5): -0.09953% | % inhibition Apo pol 10' (DRC-1; 10'; concentration 5): 7.573% | % inhibition Apo pol 10' (DRC-1; 10'; concentration 10): 27.7087% | % inhibition Apo pol 10' (DRC-1; 10'; concentration 20): 47.6334% | % inhibition Apo pol 10' (DRC-1; 10'; concentration 40): 73.4276% | % inhibition Apo pol 10' (DRC-1; 10'; concentration 80): 85.3418% | % inhibition Apol 90' (DRC-1; 90'; concentration 2.5): -3.317% | % inhibition Apol 90' (DRC-1; 90'; concentration 5): -1.224% | % inhibition Apol 90' (DRC-1; 90'; concentration 10): 13.9494% | % inhibition Apol 90' (DRC-1; 90'; concentration 20): 30.2375% | % inhibition Apol 90' (DRC-1; 90'; concentration 40): 59.3171% | % inhibition Apol 90' (DRC-1; 90'; concentration 80): 84.495% | % inhibition apPOL 180' (DRC-1; 180'; concentration 2.5): -3.391% | % inhibition apPOL 180' (DRC-1; 180'; concentration 5): -3.035% | % inhibition apPOL 180' (DRC-1; 180'; concentration 10): 6.928% | % inhibition apPOL 180' (DRC-1; 180'; concentration 20): 18.5029% | % inhibition apPOL 180' (DRC-1; 180'; concentration 40): 47.7981% | % inhibition apPOL 180' (DRC-1; 180'; concentration 80): 83.4711% | % inhibition Apo pol 5' (DRC-2; 5'; concentration 2.5): 8% | % inhibition Apo pol 5' (DRC-2; 5'; concentration 5): 15% | % inhibition Apo pol 5' (DRC-2; 5'; concentration 10): 35% | % inhibition Apo pol 5' (DRC-2; 5'; concentration 20): 45% | % inhibition Apo pol 5' (DRC-2; 5'; concentration 40): 47% | % inhibition Apo pol 5' (DRC-2; 5'; concentration 80): 43% | % inhibition Apol 40' (DRC-2; 40'; concentration 2.5): 8% | % inhibition Apol 40' (DRC-2; 40'; concentration 5): 13% | % inhibition Apol 40' (DRC-2; 40'; concentration 10): 34% | % inhibition Apol 40' (DRC-2; 40'; concentration 20): 51% | % inhibition Apol 40' (DRC-2; 40'; concentration 40): 65% | % inhibition Apol 40' (DRC-2; 40'; concentration 80): 67% | % inhibition ApPOL 90' (DRC-2; 90'; concentration 2.5): 6.64% | % inhibition ApPOL 90' (DRC-2; 90'; concentration 5): 11% | % inhibition ApPOL 90' (DRC-2; 90'; concentration 10): 31% | % inhibition ApPOL 90' (DRC-2; 90'; concentration 20): 50% | % inhibition ApPOL 90' (DRC-2; 90'; concentration 40): 68% | % inhibition ApPOL 90' (DRC-2; 90'; concentration 80): 73% | % inhibition apPOL 180' (DRC-2; 180'; concentration 2.5): 2% | % inhibition apPOL 180' (DRC-2; 180'; concentration 5): 5% | % inhibition apPOL 180' (DRC-2; 180'; concentration 10): 20% | % inhibition apPOL 180' (DRC-2; 180'; concentration 20): 41% | % inhibition apPOL 180' (DRC-2; 180'; concentration 40): 67% | % inhibition apPOL 180' (DRC-2; 180'; concentration 80): 78% | % inhibition Apo pol 5' (conc. 2.5; 5'; DRC-2): 8% | % inhibition Apol 40' (conc. 2.5; 40'; DRC-2): 8% | % inhibition apPOL 180' (conc. 40; 180'; DRC-2): 67% | % inhibition Apol 40' (conc. 80; 40'; DRC-2): 67% | DNA Pol (primary screen value by plate and well; 90 min, 10 µM): 32 | DNA Pol (primary screen value of the 186 hits; unit not given; 90 min, 10 µM): 32

CC(NC(=O)Cc1cc(=O)[nH]c(SCc2cccc(Cl)c2)n1)c1ccccc1 (stereo not drawn) [Molecule 67]
IC50 [1]: 23.3 µM

O=C(Nc1nnc(-c2ccno2)o1)c1ccc2ncsc2c1 [Molecule 62, O=C(c1ccc2c(c1)scn2)Nc1nnc(o1)c1ccno1]
DNA Pol ('DNA Pol'; screening value, unit not given; 90 min, 10 µM): 57 | % inhibition Apo pol 10' (DRC-1; 10'; concentration 2.5): 10.861% | % inhibition Apo pol 10' (DRC-1; 10'; concentration 5): 15.6525% | % inhibition Apo pol 10' (DRC-1; 10'; concentration 10): 33.6921% | % inhibition Apo pol 10' (DRC-1; 10'; concentration 20): 64.2838% | % inhibition Apo pol 10' (DRC-1; 10'; concentration 40): 78.1502% | % inhibition Apo pol 10' (DRC-1; 10'; concentration 80): 81.399% | % inhibition Apol 90' (DRC-1; 90'; concentration 2.5): -2.7392% | % inhibition Apol 90' (DRC-1; 90'; concentration 5): 1.406% | % inhibition Apol 90' (DRC-1; 90'; concentration 10): 10.5152% | % inhibition Apol 90' (DRC-1; 90'; concentration 20): 33.263% | % inhibition Apol 90' (DRC-1; 90'; concentration 40): 51.9867% | % inhibition Apol 90' (DRC-1; 90'; concentration 80): 68.6824% | % inhibition apPOL 180' (DRC-1; 180'; concentration 2.5): -12.5523% | % inhibition apPOL 180' (DRC-1; 180'; concentration 5): -8.9419% | % inhibition apPOL 180' (DRC-1; 180'; concentration 10): -4.993% | % inhibition apPOL 180' (DRC-1; 180'; concentration 20): 10.6012% | % inhibition apPOL 180' (DRC-1; 180'; concentration 40): 29.0771% | % inhibition apPOL 180' (DRC-1; 180'; concentration 80): 50.4309% | % inhibition Apo pol 5' (DRC-2, 5', concentration 2.5): 9% | % inhibition Apo pol 5' (DRC-2, 5', concentration 5): 11% | % inhibition Apo pol 5' (DRC-2, 5', concentration 10): 38% | % inhibition Apo pol 5' (DRC-2, 5', concentration 20): 39% | % inhibition Apo pol 5' (DRC-2, 5', concentration 40): 37% | % inhibition Apo pol 5' (DRC-2, 5', concentration 80): 28% | % inhibition Apol 40' (DRC-2, 40', concentration 2.5): 6.5% | % inhibition Apol 40' (DRC-2, 40', concentration 5): 8% | % inhibition Apol 40' (DRC-2, 40', concentration 10): 36% | % inhibition Apol 40' (DRC-2, 40', concentration 20): 42% | % inhibition Apol 40' (DRC-2, 40', concentration 40): 53% | % inhibition Apol 40' (DRC-2, 40', concentration 80): 56% | % inhibition ApPOL 90' (DRC-2, 90', concentration 2.5): 4% | % inhibition ApPOL 90' (DRC-2, 90', concentration 5): 4% | % inhibition ApPOL 90' (DRC-2, 90', concentration 10): 29% | % inhibition ApPOL 90' (DRC-2, 90', concentration 20): 38% | % inhibition ApPOL 90' (DRC-2, 90', concentration 40): 54% | % inhibition ApPOL 90' (DRC-2, 90', concentration 80): 62% | % inhibition apPOL 180' (DRC-2, 180', concentration 2.5): -3% | % inhibition apPOL 180' (DRC-2, 180', concentration 5): -6% | % inhibition apPOL 180' (DRC-2, 180', concentration 10): 14% | % inhibition apPOL 180' (DRC-2, 180', concentration 20): 21% | % inhibition apPOL 180' (DRC-2, 180', concentration 40): 46% | % inhibition apPOL 180' (DRC-2, 180', concentration 80): 61% | % inhibition ApPOL 90' (conc 2.5 (unit not given); 90'; DRC-2): 4% | % inhibition ApPOL 90' (conc 5 (unit not given); 90'; DRC-2): 4% | % inhibition Apo pol 5' (conc 10 (unit not given); 5'; DRC-2): 38% | % inhibition ApPOL 90' (conc 20 (unit not given); 90'; DRC-2): 38% | DNA Pol (primary screen hit value, DNA Pol (186 hits); 90 min, 10 µM): 57

CCOc1ccc(/C=C2\N=C(c3cc([N+](=O)[O-])cc([N+](=O)[O-])c3)OC2=O)cc1 [Molecule 97]
IC50 [1]: 4.47 µM

NC(=O)c1cc[n+](CC2=C(C(=O)O)N3C(=O)[C@@H](NC(=O)[C@@H](c4ccccc4)S(=O)(=O)[O-])[C@H]3SC2)cc1 [Molecule 9]
IC50 [1]: 4.4 µM

Reference: publication PMC9090415, “Discovery of small molecule inhibitors of Plasmodium falciparum apicoplast DNA polymerase” (Journal of Enzyme Inhibition and Medicinal Chemistry, 2022)
